Experimental data as given in patent US10537602B2, “Feed for fish” (NUTRECO IP ASSETS B.V., priority 2006, dated 2020).

Key:
Format in all cases: in vivo
[1] = system: Atlantic salmon (Salmo salar); assay: Example 2 lipid digestibility (Apparent Digestibility Coefficient, yttrium marker); conditions: for ADC (%) lipid: Example 2, Salvia = Salvia lavandulifolia extract
Description: (§1) To achieve the above objects, additives that can increase the digestibility of fat and or protein are of value. This can be measured by the “Apparent Digestibility Coefficient”, calculated as: […]
(§2) Yttrium is added to the diet for the purpose of calculating ADC, but is otherwise not a necessary component of fish feed.
(§3) Control and comparison feeds were prepared as in Example 1. Salvia lavandulifolia salvia extract (CAS 8016-65-7) was used.
(§4) The feed was fed to Atlantic salmon (Salmo salar) weighing 199 g (±2.4 g) at the onset of the study. The fish were stocked in tanks (1 m×1 m). There were 35 fish in each tank. Sea water temperature was 12° C. The fish were fed for 82 days. The study was run in triplicate.

[2] = system: Atlantic salmon (Salmo salar); assay: Example 2 feeding study: growth and feed conversion of fish on feed with carvacrol or Salvia lavandulifolia extract; conditions: for Feed conversion ratio / Specific growth rate / Final weight: 82 days, Salvia = Salvia lavandulifolia extract; for Final weight: initial weight about 199 g, sea water 12° C., triplicate
Description: (§5) Growth rate is expressed as percentage increase in body mass from day to day (Specific Growth Rate, SGR). This is calculated as:
(§6) [formula] FinalW=final weight InitW=initial weight Days=time from measuring initial weight to final weight
(§7) The common term to describe this is Feed Conversion Ratio (FCR) defined as: FCR=Amount of feed fed (kg)/Net growth of the fish (kg)
as §3, §4

[3] = system: Atlantic salmon (Salmo salar); assay: Example 1 feeding study: growth and feed conversion of fish on feed with carvacrol or Salvia officinalis extract; conditions: for Final weight / Feed conversion ratio / Specific growth rate: 67 days, triplicate, Salvia = Salvia officinalis extract; for Final weight: initial weight about 170 g, sea water 11.8° C.
Description: as §5, §6, §7
A control feed was prepared from fish meal (407.4 g), soybean meal (55.8 g), corn gluten (196.1 g), wheat (88.0 g), fish oil (247.3 g), mineral and vitamin premixes (3.8 g), yttrium premix (1.0 g, used to measure lipid digestibility as discussed below) and astaxanthin preparation (0.6 g). Pellets were extruded using the process explained above and coated with the fish oil.
Test feeds containing 0.1 wt % and 0.2 wt % carvacrol formulation (containing 50 wt % carvacrol and 50 wt % silica carrier) were prepared. The amount of active substance was 500 and 1000 mg per kg feed, respectively. In the comparison feeds, the amount of wheat was reduced to 87.0 g and 86.0 g respectively. The carvacrol formulation was added with the other microingredients to the mixer before preconditioning.
Test feeds containing 0.1 wt % and 0.2 wt % formulation of Salvia officinalis salvia extract (containing 50 wt % salvia extract and 50 wt % silica carrier) were prepared in a similar way.
The feed was fed to Atlantic salmon (Salmo salar) weighing 169 g (±3 g) at the onset of the study. The fish was stocked in tanks (1 m×1 m). There were 30 fish in each tank. Sea water temperature was 11.8° C. (±0.5° C.). The fish were fed for 67 days. The study was run in triplicate.

[4] = system: Atlantic salmon (Salmo salar); assay: Example 3 apparent digestibility of protein, C16:0, saturated fatty acids and total lipid; conditions: for ADC protein (%) / ADC C16:0 (%) / ADC saturated fatty acids (%) / ADC total lipid (%): added as 100% oil, 96 days, one tank, Salvia lavandulifolia; for ADC protein (%): 8.9° C.
Description: as §1, §2
Control feed was prepared from South-American fish meal (526.2 g), soybean meal (40.0 g), corn gluten (79.0 g), wheat (120.4 g), South-American fish oil (230.3 g), mineral and vitamin premixes (2.5 g), yttrium premix (1.0 g), and astaxanthin preparation (0.6 g). Pellets were extruded using the process explained above and coated with the fish oil.
Test feeds were prepared containing carvacrol and/or salvia extract (Salvia lavandulifolia). Carvacrol and/or salvia extract were each added as 100% oil. Two different inclusion levels of separate carvacrol and salvia extract (0.5 g/kg and 1.0 g/kg) were tested.
Two test feeds were prepared with a combination of carvacrol and salvia extract. The inclusion levels were 1.0 g carvacrol and 0.2 g/kg salvia extract, and 0.5 g/kg carvacrol and 0.5 g/kg salvia extract, respectively. The carvacrol oil and/or salvia extract was mixed with the fish oil and coated onto the surface of the pellets by vacuum coating after drying of the pellets.
Pellet size was 3 mm for all feeds.
The feed was fed to Atlantic salmon (Salmo salar) weighing 156 g (±13 g) at the onset of the study. The fish was stocked in tanks holding 100 L water. There were 25 fish in each tank. Sea water temperature was 8.9° C.±0.2° C. The fish were fed for 96 days. The study was run with four control groups and one tank each for the different inclusion levels of carvacrol, salvia extract or combined carvacrol and salvia.
Apparent digestibility was determined for protein, the saturated fatty acid C16:0, the sum of all saturated fatty acids and the total lipid.

[5] = with increasing amounts in feed, Example 2, in words
[6] = with increasing amounts in feed, Example 1, in words
[7] = with increasing amounts in feed, Example 3, in words

## Cc1ccc(C(C)C)cc1O [Carvacrol, 2-methyl-5(1-methylethyl)-phenol]
[1]; 0.05 wt % additive in feed
  ADC (%) lipid: 95.78%
[1]; 0.1 wt % additive in feed
  ADC (%) lipid: 97.65%
[1]; [5]
  lipid digestibility: increased
[2]; 0.05 wt % additive in feed
  Feed conversion ratio: 0.68
  Specific growth rate: 1.16
  Final weight: 512 g
[2]; 0.1 wt % additive in feed
  Feed conversion ratio: 0.70
  Specific growth rate: 1.13
  Final weight: 503 g
[2]; [5]
  feed utilisation: improved
  fish growth: increased
[3]; 0.05 wt % additive in feed
  Final weight: 339 ± 18 g
  Feed conversion ratio: 0.91 ± 0.05
  Specific growth rate: 1.04 ± 0.05
[3]; 0.1 wt % additive in feed
  Final weight: 354 ± 6 g
  Feed conversion ratio: 0.87 ± 0.03
  Specific growth rate: 1.09 ± 0.03
[3]; [6]
  feed utilisation: improved
  fish growth: increased
[4]; 0.05 wt % additive in feed
  ADC protein (%): 88.8%
  ADC C16:0 (%): 75.3%
  ADC saturated fatty acids (%): 75.5%
  ADC total lipid (%): 89.2%
[4]; 0.10 wt % additive in feed
  ADC protein (%): 87.6%
  ADC C16:0 (%): 74.0%
  ADC saturated fatty acids (%): 74.4%
  ADC total lipid (%): 89.2%
[4]; [7]
  lipid digestibility: increased
  protein digestibility: increased
